This note sets out measurements from patent publication US20240002424A1, “HEXOSAMINE COMPOUNDS AND METHODS THEREOF” (National Institute of Immunology, priority 2021, published 2024).

The structures appear in SMILES notation.

Format in all cases: cell-based, human
One test concerns Jurkat cells. The experiment in a line: NeuAz expression on the cell surface by SPAAC with DBCO-Cy5 and flow cytometry, competition with Ac4ManNAz (1c). To be noted: for NeuAz expression / DBCO-Cy5 signal, compound alone: 50 μM alone; for extent of suppression of NeuAz expression by 1c: 50 μM co-incubated with 1c, study parallel to GalNAz; for NeuAz expression, % of controls: 50 μM with 1c 50 μM, simultaneous addition; for reduction of NeuAz, simultaneous addition: analogue 10 μM and 1c 50 μM added simultaneously. Here is the method:
FIG. 5 illustrates competitive processing by compounds of the present invention (ManNAc compounds). ManNAc compounds competitively reduce the expression of N-azidoacetyl-D-neuraminic acid (NeuAz)-carrying sialoglycans through the metabolic processing of Ac4ManNAz. Jurkat (human T-lymphoma) cells were incubated with Ac4ManNAz (Z) (50 μM) alone, co-incubated with GL-2, GL-3, MA-2, or MA-3 (at various concentrations such as 10,
25, and 50 μM) for 24 h. Expression of N-azidoacetyl-D-neuraminic acid (NeuAz) on the cell surface sialoglycans was estimated using strain-promoted azide-alkyne cycloaddition (SPAAC) with DBCO-Cy5 and analyzed by flow cytometry. […] GL-2 was used for comparative study and the structure of this compound is as below.
Jurkat cells (3.0×10^5 cells/mL; 2.5 mL per well in 6-well plates) in complete medium were treated with either vehicle (D) or Compound 1c; Untreated Jurkat cells, without addition of vehicle, were also included as additional controls. Cells were harvested at 48 h, washed thrice with PBS (3×0.5 mL) (3000×g, 2.0 min). Prior to the last wash cells were counted and were aliquoted to 1.0×10^6 cells per sample in 1.5 mL microcentrifuge tubes and centrifuged. The cells were gently resuspended in PBS ([…]) and treated with DBCO-Cy5 ([…]) and incubated at 37° C. (on a Torrey-Pines dry heating bath with mild shaking). After one hour, the cells were washed using FSB (0.5 mL, 3000×g, 2.0 min, room temperature), resuspended in PBS (250 mL), treated with PI (2.5 mg/mL), and analyzed using BD FACSCanto and FACSDiva Version 6.1.3. The cells were gated for PI-negative population for 10,000 events. Two replicate samples were prepared for each conditions and each sample was counted twice.
Estimation of NeuAz expression by 1c in the presence of peracetylated ManNAc analogues: Jurkat cells (3.0×10^5 cells/mL in 3.0 mL per well in 6-well plates) were incubated with (i) D, (ii) 1a, 1b, 1c, or 1d alone (50 mM) or (iii) 1a, 1b, or 1d (50 mM) in combination with 1c (50 mM). After 24 h, cells were harvested, washed using FSB, aliquoted to 5.0×10^5 cells per sample, and processed as mentioned above for estimation of NeuAz expression using DBCO-Cy5 ([…]). Experiments using HL-60 cells were performed using the same procedure. […]
Effect of GlcNAc and ManNAc analogues on NeuAz expression: Jurkat cells were treated with 1a, 1b, 2a, or 2b (10, 25, and 50 mM for each analogue) in combination with 1c (50 mM). Cells treated with 1c (50 mM) alone were considered as a reference. After 24 h, cells were harvested, processed, labelled with DBCO-Cy5 ([…]), and analysed by flow cytometry as mentioned above.
In order to evaluate the metabolism, Jurkat (human T-lymphoma) cells were selected and incubated with ManNAc analogues either alone (50 μM) or in combination with 1c (50 μM) for 48 h. Expression of NeuAz on cell surface was estimated by flow cytometry through the copper-free bio-orthogonal strain-promoted azide-alkyne cycloaddition (SPAAC) reaction using dibenzocyclooctyne-Cy5 (DBCO-Cy5). The conditions for click reaction were optimized for various concentrations of DBCO-Cy5 and time course of SPAAC reaction in Jurkat cells. Based on the optimization results, incubation time of 30 min at 37° C. for 5.0×10^5 cells (pre-incubated with 1c for 48 h) with 20 μM of DBCO-Cy5 in 100 μL total volume for experiments with ManNAc analogues was chosen. […] In order to test the dose-dependency of this inhibitory effect on NeuAz expression and to establish competitive metabolic processing, Jurkat cells were first treated with either 1a or 1b (0-50 μM) followed by addition of 1c (50 μM) at 12 h and estimation of NeuAz at 48 h. As expected, the suppression of NeuAz expression was substantially higher when added with a 12 h delay compared to simultaneous addition, in a dose-dependent manner. […] By contrast simultaneous addition resulted only in a 10% reduction of NeuAz for both 1a and 1b (FIG. 6C and FIG. 7B).
(In general: In flow cytometry, cells or beads pass a laser one at a time.)

Test [1] relates to HL-60 cells. In words: NeuAz expression by SPAAC with DBCO-Cy5 and flow cytometry, competition with 1c. The note with it: 50 μM with 1c 50 μM, 24 h. Here is the method: Estimation of NeuAz expression by 1c in the presence of peracetylated ManNAc analogues: Jurkat cells (3.0×10^5 cells/mL in 3.0 mL per well in 6-well plates) were incubated with (i) D, (ii) 1a, 1b, 1c, or 1d alone (50 mM) or (iii) 1a, 1b, or 1d (50 mM) in combination with 1c (50 mM). After 24 h, cells were harvested, washed using FSB, aliquoted to 5.0×10^5 cells per sample, and processed as mentioned above for estimation of NeuAz expression using DBCO-Cy5 ([…]). Experiments using HL-60 cells were performed using the same procedure.
Having confirmed metabolic acceptability in Jurkat cells, the compounds were tested on HL-60 (human acute myeloid leukemia) cells which are a reliable model for neutrophil adhesion. The effect on competitive suppression of NeuAz expression was studied using 1c as a reporter. HL-60 cells were treated with 1c either alone (50 μM) or in combination with ManNAc analogues (50 μM), including the straight chain derivatives, for 24 h followed by DBCO-Cy5 ligation. […] The decreasing ability of linear alkyl moieties (1d-1g), as a function of chain length, for suppression of NeuAz expression is in contrast to the cycloalkyl moieties. […] Similarly, 1a induced a reduction of 40% compared to only a 15% reduction by 1f.

The test system of test [2] is HL-60 cells. In words: Anti-CLA (HECA452) antibody binding by flow cytometry. The note with it: 50 μM, 24 h. Here is the method: Effect of HexNAc analogues on the expression of cutaneous lymphocyte antigen (CLA/HECA452) epitopes: HL-60 cells (3.0×10^5 cells/mL in 2.5 mL complete medium in 6-well plates) were treated with D, 1a, 1b, or 1d (50 mM), including untreated controls. After 24 h cells were harvested, washed in PBS (3×0.5 mL), aliquoted to 5.0×10^5 cells per sample, and incubated with rat anti-human CLA (HECA452) antibody (5.0 mg/mL) in PBS (50 mL) at 4° C. After 1.0 h, cells were washed with PBS (2×0.5 mL) and stained with AlexaFluor488-conjugated anti-rat IgM (10 mg/mL) in PBS (50 mL) at 4° C. After 1.0 h, cells were washed with PBS (2×0.5 mL), resuspended in PBS (0.2 mL) and treated with PI (2.5 mg/mL). Additionally control samples of cells treated with (i) isotype antibody followed by secondary antibody and (ii) only secondary antibody were prepared. Cells were gated on PI-negative population and analyzed by flow cytometry as given above. Two replicate samples were analyzed for each condition and each sample was counted twice by flow cytometry as mentioned above.

Setting [3] is: 50 μM co-incubated with 1c 50 μM, 48 h.

For the molecule `CC(=O)OC[C@H]1O[C@H](OC(C)=O)[C@@H](NC(=O)C2CC2)[C@@H](OC(C)=O)[C@@H]1OC(C)=O` [Compound 1a, 1,3,4,6-tetra-O-acetyl-2-cyclopropanoylamino-2-deoxy-α-D-mannopyranose], the “NeuAz expression / DBCO-Cy5 signal, compound alone” value (“NeuAz expression / DBCO-Cy5 signal” below) in the test with Jurkat cells (48 h) is “negligible signals”. For the same molecule, the “NeuAz expression (1c alone taken as 100%)” value in the test with Jurkat cells (setting [3]) worked out at 60%. Further, in the test with Jurkat cells, the “extent of suppression of NeuAz expression by 1c” value is 50% and the “reduction of NeuAz, simultaneous addition” value amounted to 10%. Further, in the test with Jurkat cells (24 h), the “NeuAz expression, % of controls” value was 60%. Besides, in the test on Jurkat cells (Ac4ManNAz (Z) 50 μM plus analogue at 10, 25, 50 μM, 24 h, listed as MA-2), the “NeuAz expression upon co-incubation with Ac4ManNAz” value is “reduced competitively in a dose-dependent manner”. Further, in the test with HL-60 cells [1], the “NeuAz expression with respect to 1c alone (100%)” value (from here on “NeuAz expression … (100%)”) is given as 60% and the “reduction of NeuAz expression with respect to controls” value is 40%. Moreover, the “decrease in HECA-452 binding compared to untreated cells” value in the test on HL-60 cells [2] came out at 40%.

On to `CC(=O)OC[C@H]1OC(OC(C)=O)[C@@H](NC(=O)C2CCC2)[C@@H](OC(C)=O)[C@@H]1OC(C)=O` (stereo partly drawn) [Compound 1b, (3S,4R,5S,6R)-6-(acetoxymethyl)-3-(cyclobutanecarboxamido)tetrahydro-2H-pyran-2,4,5-triyl triacetate], for which the “NeuAz expression / DBCO-Cy5 signal” value in the test on Jurkat cells (48 h) is “negligible signals”. Besides, in the test with Jurkat cells (setting [3]), the “NeuAz expression (1c alone taken as 100%)” value stood at 65%. Further, in the test on Jurkat cells, the “extent of suppression of NeuAz expression by 1c” value was found to be 50% and the “reduction of NeuAz, simultaneous addition” value came to 10%. The “NeuAz expression, % of controls” value in the test on Jurkat cells (24 h) is listed as 50%. Also, in the test on HL-60 cells [1], the “NeuAz expression … (100%)” value came to 55% and the “reduction of NeuAz expression with respect to controls” value came to 45%. Besides, the “decrease in HECA-452 binding compared to untreated cells” value with HL-60 cells [2] is listed as 40%.

With `CC(=O)NC1C(OC(C)=O)OC(COC(C)=O)[C@@H](OC(C)=O)[C@@H]1OC(C)=O` (stereo partly drawn) [Compound 1d, 1,3,4,6-tetra-O-acetyl-2-acetylamino-2-deoxy-α/β-D-mannopyranose], the “NeuAz expression / DBCO-Cy5 signal” value with Jurkat cells (48 h) is “negligible signals”. In addition, in the test with Jurkat cells (setting [3]), the “NeuAz expression (1c alone taken as 100%)” value was determined as 30% and the “reduction of NeuAz expression” value amounted to 70%. In addition, in the test with HL-60 cells [1], the “NeuAz expression … (100%)” value is recorded as 40% and the “suppression of NeuAz expression (in words)” value is recorded as “Maximum suppression”. Further, in the test with HL-60 cells [2], the “change in HECA-452 binding (in words)” value is given as “moderate increase”.
